# Laboratory results: patent EP0470144B1, “BETA-HYDROXAMATE D-ASPARTIC ACID FOR TREATMENT OF VIRAL INFECTIONS AND TUMOURS” (priority 1989, dated 1990)
# Experiments:
# [1] = LD50 comparison of DAH and LAH; conditions: in vivo
# lymphome L5178Y = test: Antitumour activity in the L5178Y lymphoma model, survival; type: in vivo; conditions: days 1,2,3,4,5; for Nombre d'animaux survivants: at 120 days
# Excerpt: L'activité antitumorale du DAH a été aussi étudiée sur deux autres modèles murins : le lymphome L5178Y et la leucémie P388.
# Les cellules de lymphome murin (L5178Y) sont maintenues par passages intrapéritonéaux successifs chez la souris DBA/2 et injectées, pour les essais, à la dose de […] par souris.
# [2] = Toxicity in dogs (NCI recommendations), intravenous administration; type: in vivo, chiens Beagle
# Excerpt: En suivant les recommandations du National Cancer Institute (NCI), on a déterminé : a) la dose maximale non toxique, b) la dose toxique faible, c) la dose maximale toxique non léthale, d) la dose léthale.
# Ces études ont été réalisées sur des chiens Beagle âgés de six à sept mois et pesant 6,5 à 7,5 kg. Pour mettre en évidence les effets toxiques du DAH, on a mesuré des paramètres cliniques, morphologiques, biochimiques et hématologiques.
# L'évaluation de la fréquence cardiaque, l'électrocardiogramme, la pression artérielle (mesurée par cathétérisme intra-artériel), et la fréquence respiratoire ont été mesurées chez des chiens anesthésiés par l'alphachloralose.
# [3] = Tolerance to prolonged administration in mice (30 days); type: in vivo, souris; conditions: 2 g/kg once daily or 1 g/kg twice daily
# Excerpt: La tolérance à l'administration prolongée du DAH a été évaluée sur un groupe de 10 souris traitées pendant 30 jours à une injection quotidienne de 2 g/kg, et un groupe de 10 souris recevant pendant la même durée deux injections de 1 g/kg par jour. La tolérance a été excellente, sans signe clinique de toxicité, sans décès et avec un poids corporel restant dans un intervalle de +/- 10 % par rapport à un groupe contrôle de même âge et de même poids initial.
# FLV = test: Friend virus (FLV) replication in SC1 cell culture, reverse transcriptase activity in supernatants; type: cell-based; conditions: SC1 cells infected with FLV
# Excerpt: Des cultures de cellules SC1 traitées avec du polybrène ont été infectées avec du FLV (5 x 10⁵ particules infectantes pour 2 x 10⁵ cellules). Les cellules ont ensuite été mises en culture avec diverses concentrations de DAH et l'activité de réplication du FLV a été mesurée par dosage de l'activité transcriptase inverse apparaissant dans les surnageants de milieux de culture aux 2ème, 4ème et 6ème jour après l'infection.
# [4] = Stability of DAH versus pH and temperature over one month (colorimetric assay of the hydroxamate function); type: physicochemical; conditions: for Pourcentage de dégradation du DAH sur une période de 30 jours: 30 days
# Experimental: La fonction hydroxamate du DAH est mise en évidence par un complexe Fe3+-hydroxamate qui donne une coloration rouge-violet, quantifiée par méthode colorimétrique à 550 nm, à l'aide d'un spectrophotomètre de type Beckman DU 70.
# La stabilité du DAH en fonction du pH et de la température a été déterminée sur une durée d'un mois par dosage colorimétrique spécifique de la fonction hydroxamate. Les résultats du tableau ci-après montrent que dans l'eau le DAH est stable jusqu'à une température de 50°C. Une dégradation significative du produit n'est constatée que dans des conditions extrêmes de pH, comme l'illustre le Tableau 1 ci-après. Tableau 1
# HIV = HIV replication in lymphocyte cultures (infected with purified virus, or coculture of AIDS patients' and normal lymphocytes), reverse transcriptase activity in supernatant; type: cell-based; conditions: DAH treatment 72 h (J0 to J3), RT followed 22 days; dose-dependent; 0,5-2 mM
# Excerpt: Cette inhibition est dose-dépendante. Les essais ont d'abord porté sur des lymphoytes de donneurs sains (Figures 1 et 2). On a pu mettre en évidence cette activité sur deux modèles de réplication du HIV : a) lymphocytes normaux infectés par le virus purifié et b) coculture des lymphocytes des malades du SIDA et de lymphocytes normaux. On a mesuré l'activité transcriptase inverse pendant 22 jours dans le surnageant de cultures cellulaires comme critère de prolifération virale. Le traitement avec le DAH a duré 72 heures de J₀ à J₃ de la manipulation (Figures 3, 4 et 5). […] Par contre, le DAH s'est montré plus toxique vis-à-vis des lymphocytes infectés par le virus du SIDA (Figures 6 et 7).
# Effet du traitement par le DAH durant trois jours sur la production de transcriptase inverse virale par une coculture de lymphocytes des malades du SIDA et de lymphocytes normaux.
# (●) absence de DAH (témoin) (o) concentration en DAH = 1 mM (□) concentration en DAH = 1,5 mM • . En abscisses : temps de croissance des cultures après inoculation du DAH (en jours) • . En ordonnées : activité transcriptase inverse (en CPM/million de cellules)
# Effet du traitement par le DAH durant trois jours, sur la production de transcriptase inverse virale d'une culture de lymphocytes infectés par du virus purifié. […]
structure (smiles),measurement,setting,value
"N[C@@H](CC(=O)NO)C(=O)O [DAH, D-acide aspartique β-hydroxamate]",DL 50 %,[1],10 g/kg
same,T/Cx100,lymphome L5178Y; 1 g/kg x 3/j,576%
same,Nombre d'animaux survivants,lymphome L5178Y; 1 g/kg x 3/j,5/5
same,T/Cx100,lymphome L5178Y; 1 g/kg x 4/j,576%
same,Nombre d'animaux survivants,lymphome L5178Y; 1 g/kg x 4/j,5/5
same,nadir plaquettes,"[2]; 5 g/kg, 8th day after injection, return to pre-treatment level seven to ten days later",39 x 109 plaquettes/l
same,nadir plaquettes,"[2]; 9 g/kg, twenty-two days after injection",17 x 109 plaquettes/l
same,récupération partielle (plaquettes),"[2]; 9 g/kg, two months later",56 x 10⁹/l
same,"fréquence cardiaque, électrocardiogramme, pression artérielle, fréquence respiratoire","[2]; anaesthetised dogs, intravenous 1 to 5 g/kg",aucune modification
same,dose maximale non toxique,"[2]; dog, in vivo","2,5-3 g/kg"
same,dose toxique faible,"[2]; dog, in vivo",5000 mg/kg
same,dose toxique maximale non léthale,"[2]; dog, in vivo",~9000 mg/kg
same,toxicité de la fonction rénale ou hépatique,[2]; doses up to 9 g/kg,Aucune toxicité
same,toxicité sur les lignées granulo-monocytaires et érythrocytaires,[2]; including high doses (9 g/kg),Aucune toxicité
same,dose à partir de laquelle une toxicité sur la lignée plaquettaire a été constatée,[2]; intravenous,≥ 5000 mg/kg
same,Effets toxiques d'apparition immédiate,"[2]; intravenous 1 to 10 g/kg (10 % solution), during administration, with anorexia up to 24 hours",vomissements
same,tolérance à l'administration réitérée,"[2]; intravenous, two weeks, five weekly injections of 1 g/kg",aucun signe d'intolérance autre que des vomissements
same,complication rénale,"[2]; one dog, dose of more than 10 g/kg, avoided later by prehydration",précipitation des cristaux de DAH dans les tubules rénaux
same,"poids corporel, intervalle (+/-) par rapport à un groupe contrôle",[3],≤ 10%
same,tolérance à l'administration prolongée,"[3]; no clinical sign of toxicity, no death",excellente
same,activité transcriptase inverse abaissée,"FLV; DAH 0,2 mM",~70%
same,activité transcriptase inverse abaissée,"FLV; DAH 0,5 mM",80%
same,activité transcriptase inverse abaissée,FLV; DAH 1 mM,90%
same,Pourcentage de dégradation du DAH sur une période de 30 jours,"[4]; HCl 0,1 N, + 4 °C",42%
same,Pourcentage de dégradation du DAH sur une période de 30 jours,"[4]; HCl 0,1 N, + 25 °C",78%
same,Pourcentage de dégradation du DAH sur une période de 30 jours,"[4]; HCl 0,1 N, + 50 °C",100%
same,Pourcentage de dégradation du DAH sur une période de 30 jours,"[4]; H₂O, + 4 °C",0%
same,Pourcentage de dégradation du DAH sur une période de 30 jours,"[4]; H₂O, + 25 °C",0%
same,Pourcentage de dégradation du DAH sur une période de 30 jours,"[4]; H₂O, + 50 °C",0%
same,Pourcentage de dégradation du DAH sur une période de 30 jours,"[4]; NaOH 0,1 N, + 4 °C",4%
same,Pourcentage de dégradation du DAH sur une période de 30 jours,"[4]; NaOH 0,1 N, + 25 °C",36%
same,Pourcentage de dégradation du DAH sur une période de 30 jours,"[4]; NaOH 0,1 N, + 50 °C",100%
same,Stabilité du DAH,"[4]; in water, up to 50°C, one month",stable
same,multiplication virale du HIV (activité transcriptase inverse),HIV,inhibe de manière totale
